Several values for one entry are separate records, joined by “and”; a condition that tells them apart may be missing. Equal values may be shown once. No end group written: not given here.
Assays:
TNC-C = biological target: T1, TNC-C (Homo sapiens, UniProt P24821); experiment: Individual peptide-phage binding to TNC-C; conditions: individual peptide phages
T1 construct: made in house; host or cells: E. coli BL21 Rosetta 2 (DE3) pLysS
T1 sequence (P24821 with tags, fused parts or gaps): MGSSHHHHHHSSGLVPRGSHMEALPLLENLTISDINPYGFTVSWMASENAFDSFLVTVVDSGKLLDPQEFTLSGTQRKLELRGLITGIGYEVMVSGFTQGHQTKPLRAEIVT

P13 tumor = conditions: i.v. equimolar mix, 2 h circulation
Description: (§1) In vivo play-off was used to evaluate systemic homing of peptide phage to xenograft tumor models. The in vitro selected candidate TNC-C binding peptides, phages displaying published tumor homing peptides, and control peptides were amplified and purified by precipitation with PEG-8000 (Sigma-Aldrich, St. Louis, MO, USA), followed by CsCl2 gradient ultracentrifugation and dialysis. The amplified phage peptides were pooled in equimolar quantities, and injected intravenously (final 1×10^10 pfu in 200 μl PBS) in tumor-bearing mice for two hour circulation, after which mice were anesthetized with 2.5% avertin and intracardially perfused with DMEM intracardially. The tumors and organs were collected in lysogeny broth (LB)+1% NP40, and the tissues were homogenized using a hand-held homogenizer for phage peptide rescue. Phages in the tissue lysates were amplified in E. coli, purified by precipitation with PEG-8000 and DNA was extracted using a DNA extraction kit (High Pure PCR Template Preparation Kit; Roche, Basel, Switzerland). Next-generation sequencing of phage genomic DNA evaluated the representation of each phage in input mixture, in tumor and control organs with Ion Torrent system (Thermo Fisher Scientific, Waltham, MA, USA). The next generation deep sequencing of phage library was done using Ion Torrent according to the manufacturer's protocol with slight modification. The FASTQ data from Ion Torrent was processed by a custom python script that identified the barcodes, constant flanking residues, and extracted the reads of the correct length.

P3 stem cell-like tumor = conditions: i.v. equimolar mix, 2 h circulation
Description: as §1

[1] = tested on: PC3 prostate carcinoma xenografts; conditions: i.v. equimolar mix, 2 h circulation
Description: as §1

U87-MG glioblastoma = conditions: i.v. equimolar mix, 2 h circulation
Description: as §1

WT-GBM tumor = conditions: i.v. equimolar mix, 2 h circulation
Description: as §1

normal brain = conditions: i.v. equimolar mix, 2 h circulation
Description: as §1

[2] = Zeta potential and size of iron oxide nanoworms by DLS; assay type: physicochemical; conditions: n = 3
Method: The concentration of the NWs was determined by constructing a calibration curve with iron oxide and measuring the absorbance of NWs at 400 nm with a NanoDrop 2000c spectrophotometer (Thermo Scientific). The concentration measurements were confirmed by ICP-MS. Transmission electron microscopy (TEM, Tecnai 10, Philips, Netherlands) was used to image the nanoparticles. Dynamic Light Scattering (DLS; Zetasizer Nano ZS, Malvern Instruments, UK) was used to assess the zeta potential, polydispersity and size of NWs.

[3] = tested on: orthotopic NCH421K glioblastoma xenografts; experiment: Systemic NW tumor homing, FAM signal by confocal microscopy; assay type: in vivo, mice; conditions: NCH421K tumors, 7.5 mg/kg i.v., 5 h
Method: For NW biodistribution studies, NWs (7.5 mg/kg) in PBS were injected into the tail vein of the tumor-bearing mice, followed by cardiac perfusion with 20 ml PBS/DMEM before collection tumor and control organs for imaging. In control experiments, NW injection was preceded by systemic pre-injection of blocking FN-EDB and/or TNC-C antibodies (30 μg/mouse) 15 min prior to injection of the NWs.
Snap-frozen 10 μm tumor cryosections were mounted on Superfrost™^+ slides. The sections were equilibrated at RT and fixed with 4% paraformaldehyde/methanol and permeabilized with PBST (PBS+0.05% Tween 20), blocked with PBST, 5% BSA, 5% goat serum (GE Healthcare, Little Chalfont, UK) at RT for 30 min, followed by primary antibody incubation at RT for 1 h. […] The coverslips were mounted on glass slides with Fluoromount-G (Electron Microscopy Sciences, PA, USA), imaged using confocal microscopy (Olympus FV1200MPE, Tokyo, Japan) and analyzed using the FV10-ASW4.2 viewer, Imaris software and ImageJ freeware.

[4] = tested on: orthotopic WT-GBM glioblastoma; experiment: as above; assay type: in vivo, mice; conditions: WT tumors, 7.5 mg/kg i.v., 5 h
Method: (§2) FAM-labeled PL2 peptide coupled NW or control FAM-NW (7.5 mg/kg) in PBS were injected into the tail vein of the subcutaneous U87, PC3, and orthotropic WT-GBM tumor mice. Five h after circulation, the tumor and organs were collected by cardiac perfusion of mice with 20 ml PBS/DMEM under deep anesthesia. Tissues were imaged under an Illuminatool Bright Light System LT-9900 (Lightools Research, Encinitas, CA, USA) before Snap-frozen. The frozen tissues were cryosectioned 8-10 μm and mounted on a superfrost+ slides. The sections were equilibrated at RT and fixed with 4% paraformaldehyde/methanol. The immunostaining performed with following primary antibodies; rabbit anti-fluorescein IgG fragment (cat. no. A889, Thermo Fisher Scientific, MA, USA), rat anti-mouse CD31 (BD Biosciences, CA, USA), and in-house prepared CF647 or CF546-labeled single chain antibodies ScFV G11, for secondary antibodies; Alexa 488 goat anti-rabbit IgG, Alexa 647 goat anti-rat IgG, and Alexa 546 goat anti-mouse IgG, were from Invitrogen, CA, USA. Nuclei were counterstained with 4′,6-diamidino-2-phenylindole (DAPI, Molecular Probes) at one 1 μg/ml. The coverslips were mounted onto glass slides with Fluoromount-G (Electron Microscopy Sciences, PA, USA) imaged using confocal microscopy (Olympus FV1200MPE, Hamburg, Germany), and analyzed using the FV10-ASW4.2 viewer/Imaris software/Fiji ImageJ.

[5] = tested on: PC3 prostate carcinoma xenografts; experiment: as above; assay type: in vivo, mice; conditions: PC3 tumors, 7.5 mg/kg i.v., 5 h
Method: as §2

orthotopic NCH421K GBM = experiment: Magnetic resonance imaging of NW-injected mice; assay type: in vivo
Method: For MRI, nude mice bearing orthotopic NCH421k GBM were i.v. injected with iron oxide nanoworms at 5 mg/kg. Five hours after NW injection, the mice were anesthetized with isoflurane and subjected to MRI using a 9.4 Tesla BioSpec 94/21 (Bruker BioSpin MRI GmbH, Ettlingen, Germany) equipped with ParaVision Acquisition 6.0.1 software (Bruker, Ettlingen, Germany). Following intravital MRI, the animals were perfused with PBS to remove blood and background circulating NWs and subjected to postmortem MRI. After imaging, tumors and control tissues were harvested and sectioned for immunofluorescence staining. Mice received isoflurane in oxygen mix (1.5%, flow rate of 200 ml/min) for anesthesia; the body temperature and breathing rate were monitored throughout the experiments. T2* map MGE (Multiple Gradient Echo) sequences were acquired in sagittal and coronal orientations. The following parameters were used during the data acquisition: slice thickness −0.375 mm (3 slices averaged offline for improved signal/noise ratio); inter-slice gap −0.375 mm; repetition time −800; Echo time ˜3.5-38.5 ms; flip angle ˜50°; axial slices ˜128, pixel bandwidth ˜292.9; imaging frequency ˜400.3; matrix ˜256×256, and magnetic field strength ˜9.4. To calculate T2 relaxation times, regions of interest (ROIs) were drawn manually on the images by using image sequence analysis (ISA) tool package (Paravision 5, Bruker) using T2vtr fit function y=A+C*exp (−t/T2) (A=Absolute bias, C=signal intensity, T2=spin-spin relaxation time) for T2 evaluation. To calculate mean signal intensity in the tumor to a reference region, ROIs were drawn manually on the images at given echo time (TE). Experiments were repeated in triplicate.

s.c. U87MG tumors = experiment: Experimental tumor therapy; assay type: in vivo, mice
Method: U87MG cells (4×10^6) in 100 μl PBS were implanted subcutaneously into the right flank of 11-15 week old male nude mice. The weight of animals and tumor volume [length×(width×width)/2] was recorded on every other day until tumor volume reached −100 mm^3. Animals were randomized into 4 groups (PBS, FAM-D[KLAKLAK]2-NWs, FAM-PL1-NWs, and FAM-PL1-D[KLAKLAK]2-NWs; 8 mice/group). 100 μl of NWs (at 5 mg/kg body weight of iron) or PBS was intravenously injected into the tail vein every other day for ten injections. Tumor size, body weight, survival, and behavior were recorded during treatment and post-therapy. When the tumor volume reached 2000 mm^3 (or >10% body weight), the mice were sacrificed, and organs and tumors were excised, macroscopically observed and snap frozen. Tumor volume, Kaplan-Meier survival and body weight curves were calculated using the GraphPad Prism 6 software with p-values <0.05 considered significant. For experimental therapy on intracranially-implanted NCH421k GBM, 32 tumor mice were randomized into 4 groups 3 days after the tumor implantation. […] Tumor size, body weight, survival, and behavior were recorded during and post-treatment. Kaplan-Meier survival and body weight curves were calculated using GraphPad Prism 6 and P values <0.05 were considered significant.

[6] = tested on: intracranially-implanted NCH421k GBM; experiment: Experimental tumor therapy; assay type: in vivo, mice; set-up: percent of the surviving mice: concentration or dose not given beside the values
Method: U87MG cells (4×10^6) in 100 μl PBS were implanted subcutaneously into the right flank of 11-15 week old male nude mice. The weight of animals and tumor volume [length×(width×width)/2] was recorded on every other day until tumor volume reached −100 mm^3. Animals were randomized into 4 groups (PBS, FAM-D[KLAKLAK]2-NWs, FAM-PL1-NWs, and FAM-PL1-D[KLAKLAK]2-NWs; 8 mice/group). 100 μl of NWs (at 5 mg/kg body weight of iron) or PBS was intravenously injected into the tail vein every other day for ten injections. Tumor size, body weight, survival, and behavior were recorded during treatment and post-therapy. When the tumor volume reached 2000 mm^3 (or >10% body weight), the mice were sacrificed, and organs and tumors were excised, macroscopically observed and snap frozen. Tumor volume, Kaplan-Meier survival and body weight curves were calculated using the GraphPad Prism 6 software with p-values <0.05 considered significant. For experimental therapy on intracranially-implanted NCH421k GBM, 32 tumor mice were randomized into 4 groups 3 days after the tumor implantation. 100 μl of the PBS or PBS containing FAM-D[KLAKLAK]2-NWs, FAM-PL1-NWs and FAM-PL1-D[KLAKLAK]2-NWs (5 mg/kg body weight of iron; SEQ ID NO:6) were injected i.v. every other day for 10 total injections. Tumor size, body weight, survival, and behavior were recorded during and post-treatment. Kaplan-Meier survival and body weight curves were calculated using GraphPad Prism 6 and P values <0.05 were considered significant.

clinical GBM samples = experiment: NW overlay assay on clinical GBM cryosections; set-up: species or system human; conditions: confocal imaging
Method: Fresh surgical GBMs ([…]) were snap-frozen in liquid nitrogen, cryosectioned at 8 μm, fixed with methanol, and permeabilized with TBS followed by blocking buffer containing 5% BSA, 5% goat serum and 5% FBS in TBS. For overlay, the sections were incubated with […] of PL1-NW or NW at 4° C. overnight. The sections were washed and blocked with blocking buffer, followed by immunostaining using rabbit anti-fluorescein primary antibodies and detection with the Alexa-488 anti-rabbit secondary antibody. FN-EDB and TNC-C were detected by fluorescently labeled single-chain antibodies ScFV L19 FN-EDB-CF647 and ScFV G11 TNC-C-CF555.

[7] = tested on: Ad-VEGF-A164-induced angiogenic vessels; conditions: adenovirus-injected ear, 7.5 mg/kg i.v., 24 h
Method: Angiogenesis was induced by injecting 2.5×10^8 PFU of an adenoviral vector driving expression of mouse VEGF^164 (Ad-VEGF^164) intradermally into the left ear of 7-8 week-old female nude mice (Nagy et al., Methods Enzymol. 444:43-64 (2008)). The right ear served as a control. PL1-NW or NW (at 7.5 mg/kg) were i.v. injected 4 days after induction of angiogenesis and 24 h before intravital imaging. Texas Red/Evans Blue was i.v. injected at 30 mg/kg to allow visualization of blood vessels. The ear was fixed on the coverslip for imaging using a veterinary-grade glue tape, and a mold was prepared around the ear from agarose for imaging. The body temperature was maintained throughout the experiment with a heat mat. Images and videos were acquired at an excitation wavelength of 920 nm, optical sections were taken under identical conditions, and experiments were repeated in triplicates.

[8] = tested on: s.c. U87MG glioblastoma xenografts; experiment: Systemic NW tumor homing, FAM signal by confocal microscopy; conditions: U87MG tumors, 7.5 mg/kg i.v., 5 h
Method: as §2

Substance: AVRGRLRVAKLAAALE
- TNC-C binding (fold G7 control phage) (TNC-C): 5333 fold and 7111 fold
- Representation of phage in tumors (fold G7 control phage), P13 (P13 tumor): 0.6 fold
- Representation of phage in tumors (fold G7 control phage), P3 SCL (P3 stem cell-like tumor): 0.6 fold
- Representation of phage in tumors (fold G7 control phage), PC3 [1]: 1.0 fold
- Representation of phage in tumors (fold G7 control phage), U87-MG (U87-MG glioblastoma): 0.8 fold
- Representation of phage in tumors (fold G7 control phage), WT-GBM (WT-GBM tumor): 1.3 fold
- Representation of phage in control brain tissue (fold G7 control phage), Norm. brain (normal brain): 0.1 fold

Substance: PL1-NW: iron oxide nanoworms coated with FAM-labeled PL1 peptide (CPPRRGLIKLKTS; not fully specified (residue 1); also: FAM label)
- Zeta Potential [2]: −10.3 ± 0.7 mV
- increase in NW accumulation compared to non-targeted NWs [3]: 8.8 fold
- increase in NW accumulation compared to non-targeted NWs [4]: 3.3 fold
- increase in NW accumulation compared to non-targeted NWs [5]: 4.7 fold
- decrease of T2* relaxation time within the tumor (orthotopic NCH421K GBM; 5 mg/kg iron i.v.): 27-36%
- T2* relaxation time within the tumor (orthotopic NCH421K GBM; after NW injection, first value (post-scan, 5 h)): 17 ± 1 ms
- T2* relaxation time within the tumor (orthotopic NCH421K GBM; after NW injection, second value (perfused)): 14 ± 4 ms
- T2* relaxation time within the tumor (orthotopic NCH421K GBM; before NW injection (pre-scan)): about 23±2 ms
- Median survival (s.c. U87MG tumors; U87MG, Kaplan-Meier): 39 days
- percent of the surviving mice (s.c. U87MG tumors; U87MG, day 0): 100%
- percent of the surviving mice (s.c. U87MG tumors; U87MG, day 29): 88%
- percent of the surviving mice (s.c. U87MG tumors; U87MG, day 31): 75%
- percent of the surviving mice (s.c. U87MG tumors; U87MG, day 33): 75%
- percent of the surviving mice (s.c. U87MG tumors; U87MG, day 35): 63%
- percent of the surviving mice (s.c. U87MG tumors; U87MG, day 37): 63%
- percent of the surviving mice (s.c. U87MG tumors; U87MG, day 39): 38%
- percent of the surviving mice (s.c. U87MG tumors; U87MG, day 41): 25%
- percent of the surviving mice (s.c. U87MG tumors; U87MG, day 43): 25%
- percent of the surviving mice (s.c. U87MG tumors; U87MG, day 45): 13%
- percent of the surviving mice (s.c. U87MG tumors; U87MG, day 49): 13%
- percent of the surviving mice (s.c. U87MG tumors; U87MG, day 57): 0%
- tumor growth (s.c. U87MG tumors; s.c. U87MG, i.v. every other day, 10 injections, 5 mg/kg iron): only a slight reduction in tumor growth
- Median survival ([6]; Kaplan-Meier): 42 days
- percent of the surviving mice ([6]; day 0): 100%
- percent of the surviving mice ([6]; day 32): 100%
- percent of the surviving mice ([6]; day 37): 75%
- percent of the surviving mice ([6]; day 38): 62.5%
- percent of the surviving mice ([6]; day 39): 62.5%
- percent of the surviving mice ([6]; day 40): 62.5%
- percent of the surviving mice ([6]; day 41): 62.5%
- percent of the surviving mice ([6]; day 42): 37.5%
- percent of the surviving mice ([6]; day 43): 25%
- percent of the surviving mice ([6]; day 44): 0%
- binding to clinical GBM cryosections (clinical GBM samples): showed binding to all human GBM samples tested
- increase in accumulation in angiogenic vessels relative to nontargeted NWs [7]: ~3 fold
- increase in NW accumulation compared to non-targeted NWs [8]: 5 fold

From patent US12583888B2, “Bi-specific extracellular matrix binding peptides and methods of use thereof” (University of Tartu, priority 2019, dated 2026)
